Marks after values point to notes of the source that are not given here.
Experiments:
[1] = tested on: human lung carcinoma (A549); experiment: cells; type: cell-based; settings: 48 h
[2] = tested on: colon cancer (HCT116); experiment: cells; type: cell-based; settings: Homo sapiens, 48 h
[3] = tested on: prostate cancer (PC3); experiment: cells; type: cell-based; settings: Homo sapiens, 48 h
[4] = tested on: skin cancer (A431); experiment: cells; type: cell-based; settings: Homo sapiens, 48 h
[5] = tested on: hepatocellular carcinoma cell line (HePG2); experiment: cells; type: cell-based; settings: Homo sapiens, 48 h
[6] = tested on: osteosarcoma cell line (HOS); experiment: cells; type: cell-based; settings: Homo sapiens, 48 h
[7] = tested on: pancreatic cancer cell line (PACA2); experiment: cells; type: cell-based; settings: Homo sapiens, 48 h
[8] = in vitro; type: cell-based; settings: human, BJ1 normal skin fibroblast cells, 100 μg/mL
[9] = tested on: normal skin fibroblast cell line (BJ1); experiment: cells; type: cell-based; settings: Homo sapiens, Skin fibroblast, MTT, 48 h
[10] = tested on: PALB2; experiment: qRT-PCR, PALB2 in PACA2 cells; type: cell-based, human; settings: versus negative untreated sample
[11] = tested on: CDKN2A; experiment: qRT-PCR, CDKN2A in PACA2 cells; type: cell-based, human; settings: versus negative untreated sample
[12] = tested on: BRCA1; experiment: qRT-PCR, BRCA1 in PC3 cells; type: cell-based, human; settings: versus negative samples
[13] = tested on: BRCA2; experiment: qRT-PCR, BRCA2 in PC3 cells; type: cell-based, human; settings: versus negative samples
[14] = tested on: EGFR; experiment: qRT-PCR, EGFR in A549 cells; type: cell-based, human; settings: versus negative samples
[15] = tested on: KRAS; experiment: qRT-PCR, KRAS in A549 cells; type: cell-based, human; settings: versus negative samples
[16] = tested on: TP53; experiment: qRT-PCR, TP53 in HCT116 cells; type: cell-based, human; settings: versus negative samples
Experimental: RNA was extracted from pancreas, prostate, lung and liver cell lines using a total RNA purification kit (Qiagen, Hilden, Germany) according to the manufacturer's instructions. An aliquot of RNA was diluted in RNase-free water to estimate RNA quantity. Aliquots were used immediately for reverse transcription (RT). cDNA synthesis was performed on extracted RNA, which was treated with DNase (Invitrogen, Germany) to remove any possible DNA contamination. The DNase-treated RNA was reverse transcribed into first-strand cDNA using the RevertAid First Strand cDNA Synthesis kit (Fermantas) according to the manufacturer's instructions. Determination of the pancreas, prostate, lung and liver cell line cDNA copy number was carried out using StepOne™ Real-Time PCR System from Applied Biosystems (Thermo Fisher Scientific, Waltham, MA USA). Gene expressions were detected by real-time PCR, which was performed using the Rotor-Gene Q system (Qiagen Company). A 25 µL reaction mixture consisted of 12.5 µL SYBR® Premix Ex TaqTM (TaKaRa, Biotech. Co. Ltd.), 0.5 µL of each primer (10 PMole) (Table 1), 1 µL cDNA (50 ng) and 10.5 µL RNase free water. The optimum amplification conditions were chosen empirically according to each tested gene. Generally, the amplification conditions include initial incubation (95.0 °C for 3 min), then 40 cycles of amplification with denaturation (95.0 °C for 15 s), annealing (55.0 °C for 30 s) and extension (72.0 °C for 30 s) steps then 71 cycles which started at 60.0 °C and then increased about 0.5 °C every 10 s up to 95.0 °C. Mean cycle threshold (Ct) values of triplicate samples are used for analysis. The Ct value indicates the fractional cycle number at which the amount of amplified target reaches a fixed threshold. Data from real-time PCR were analyzed using 2^−∆∆Ct method[38]–[40]. Data were represented as the fold change in target gene expression normalized to a House-Keeping gene (HKG) and relative to the control. β-actin was used as a HKG to normalize input RNA amount, RNA quality and reverse transcription efficiency.

[17] = tested on: FASN; experiment: qRT-PCR, FASN in HCT116 cells; type: cell-based, human; settings: versus negative samples
[18] = tested on: PACA2; experiment: DNA damage, comet assay, PACA2; type: cell-based, human
[19] = tested on: PC3; experiment: DNA damage, comet assay, PC3; type: cell-based, human
[20] = tested on: A549; experiment: DNA damage, comet assay, A549; type: cell-based, human; settings: of 400 cells analyzed
[21] = tested on: HCT116; experiment: DNA damage, comet assay, HCT116; type: cell-based, human
[22] = tested on: PACA2; experiment: DNA fragmentation assay, PACA2; type: cell-based, human
[23] = tested on: PC3; experiment: DNA fragmentation assay, PC3; type: cell-based, human
[24] = tested on: A549; experiment: DNA fragmentation assay, A549; type: cell-based, human
[25] = tested on: HCT116; experiment: DNA fragmentation assay, HCT116; type: cell-based, human

COc1cccc2c1C(=O)c1c(O)c3c(c(O)c1C2=O)C[C@@](O)(C(=O)CO)C[C@@H]3O[C@H]1C[C@H](N)[C@H](O)[C@H](C)O1 [Doxorubicin, reference compound]
mortality at 100 µg/mL ([1]; 100 μg/mL): 100%
IC50 ([1]; MTT): 52.1 ± 0.28 µM
mortality at 100 µg/mL ([2]; HCT-116, 100 μg/mL): 100%
IC50 ([2]; HCT-116, MTT): 69.2 ± 0.1 µM
mortality at 100 µg/mL ([3]; 100 μg/mL): 100%
IC50 ([3]; MTT): 43.8 ± 0.47 µM
mortality at 100 µg/mL ([4]; A-431, 100 μg/mL): 100%
IC50 ([4]; A-431, MTT): 45.8 ± 0.15 µM
mortality at 100 µg/mL ([5]; 100 μg/mL): 100%
IC50 ([5]; MTT): 39.7 ± 0.18 µM
mortality at 100 µg/mL ([6]; 100 μg/mL): 100%
IC50 ([6]; MTT): 24.3 ± 0.24 µM
mortality at 100 µg/mL ([7]; PaCa-2, 100 μg/mL): 100%
IC50 ([7]; PaCa-2, MTT): 52.1 ± 0.19 µM
mortality at 48 h, 100 µg/mL [8]: 100%
IC50 [9]: 24.8 ± 0.52 µM
PALB2 gene expression level [10]: significantly reduced
CDKN2A gene expression level [11]: significantly reduced
BRCA1 gene expression level [12]: decreased significantly
BRCA2 gene expression level [13]: decreased significantly
EGFR gene expression level [14]: significant reduction
KRAS gene expression level [15]: significant reduction
TP53 gene expression level [16]: suppression
FASN gene expression level [17]: suppression
DNA damaged cells % (mean ± SEM) [18]: 20.25 ± 0.75^a %
Class 1 (tail length < diameter of nucleus), number of cells ([18]; of 400 cells analyzed): 28
Class 2 (tail length between 1 and 2 × the diameter of nucleus), number of cells ([18]; of 400 cells analyzed): 26
Class 3 (tail length > 2 × the diameter of nucleus), number of cells ([18]; of 400 cells analyzed): 27
No. of cells, Comets ([18]; of 400 cells analyzed): 81
DNA damaged cells % (mean ± SEM) [19]: 20.76 ± 1.38^b %
Class 0 (no tail), number of cells ([19]; of 400 cells analyzed): 317
Class 1 (tail length < diameter of nucleus), number of cells ([19]; of 400 cells analyzed): 39
Class 2 (tail length between 1 and 2 × the diameter of nucleus), number of cells ([19]; of 400 cells analyzed): 30
Class 3 (tail length > 2 × the diameter of nucleus), number of cells ([19]; of 400 cells analyzed): 14
No. of cells, Comets ([19]; of 400 cells analyzed): 83
Class 0 (no tail), number of cells [20]: 314
Class 1 (tail length < diameter of nucleus), number of cells [20]: 25
Class 2 (tail length between 1 and 2 × the diameter of nucleus), number of cells [20]: 32
Class 3 (tail length > 2 × the diameter of nucleus), number of cells [20]: 29
No. of cells, Comets [20]: 86
DNA damaged cells % (mean ± SEM) [21]: 21.26 ± 0.48^ab %
Class 0 (no tail), number of cells ([21]; of 400 cells analyzed): 315
Class 1 (tail length < diameter of nucleus), number of cells ([21]; of 400 cells analyzed): 33
Class 2 (tail length between 1 and 2 × the diameter of nucleus), number of cells ([21]; of 400 cells analyzed): 24
Class 3 (tail length > 2 × the diameter of nucleus), number of cells ([21]; of 400 cells analyzed): 28
No. of cells, Comets ([21]; of 400 cells analyzed): 85
Change (DNA fragmentation versus untreated cells) [22]: 18.00
DNA fragmentation % M ± SEM ([22]; IC50 concentration, 24 h): 30.1 ± 0.62^b %
Inhibition ([22]; doxorubicin = 0.0): 0.0
Change (DNA fragmentation versus untreated cells) [23]: 20.1
DNA fragmentation % M ± SEM ([23]; IC50 concentration, 24 h): 31.7 ± 0.85^b %
Inhibition ([23]; doxorubicin = 0.0): 0.0
Change (DNA fragmentation versus untreated cells) [24]: 19.5
DNA fragmentation % M ± SEM ([24]; IC50 concentration, 24 h): 30.9 ± 1.64^a %
Inhibition ([24]; doxorubicin = 0.0): 0.0
Change (DNA fragmentation versus untreated cells) [25]: 21.00
Inhibition ([25]; doxorubicin = 0.00): 0.00

— publication PMC10579241, “Impact of trifluoromethyl and sulfonyl groups on the biological activity of novel aryl-urea derivatives: synthesis, in-vitro, in-silico and SAR studies” (Scientific Reports, 2023)
